Assay results: patent US9931309B2, “Curcumin-sophorolipid complex” (COUNCIL OF SCIENTIFIC & INDUSTRIAL RESEARCH, priority 2014, dated 2018)

Assays:
Zeta potential = assay type: physicochemical; conditions: dispersions without any dilution
Experimental: The surface charges of the SL(A), Cur and SL(A)+Cur were determined using a zeta potential analyzer (Brookhaven Instruments Corporation, NY). The average zeta potentials of the nano self-assembly dispersions were determined without any dilution.

MDA-MB-231 cells = experiment: MTT cytotoxicity assay in MDA-MB-231 cells; assay type: cell-based
Experimental: (§1) All the experiments were performed in triplicates and repeated twice and the data has been presented as mean±SD. Statistical analysis was conducted with the Graph Pad 4 prism program using one-way ANOVA. The p values used for comparisons were <0.05. IC50 values were calculated using Kyplot software.
(§2) In order to determine whether acidic sophorolipid enhanced the bioavailability of Curcumin in cancerous cell lines, the cytotoxic potential of the aqueous SL(A)+Cur complex was tested in breast cancer lines MCF-7 and MDA-MB-231 and was compared with that of aqueous SL(A), Cur in water, and Cur dissolved in ethanol, the latter was used as a positive control.
(§3) Cyto-toxicity analysis of the present curcumin-SL(A) complex was performed using mammalian breast cancer cell lines by the MTT dye uptake assay. […] MTT solution (5 mg/ml) was added to each well and the cells were cultured for another 4 h at 37° C. in a 5% CO2 incubator. The formazan crystals formed were dissolved by addition of 90 μL of SDS-DMF (20% SDS in 50% DMF). After 15 min, the concentration of colored formazan derivative was determined by measuring optical density (OD) using the ELISA microplate reader (Biorad, Hercules, Calif.) at 570 nm (OD: 570-630 nm). The percentage viability was calculated as: % Viability=[OD of treated cells/OD of control cells]×100 Percentage Viability Observed Post Treatment

[1] = Dynamic Light Scattering (DLS) measurements, particle size; assay type: physicochemical; conditions: 10 mg dissolved in 10 ml H2O
Experimental: The Dynamic Light Scattering (DLS) measurements were carried using the out on Brookhaven Instrument model 90 Plus Particle Size Analyzer. The solutions, i.e. Cur, SL(A) and the present SL(A)+Curcumin nano-assembly were analyzed at a constant shutter opening diameter in the DLS apparatus. […] This was also confirmed with the results obtained by SEM and TEM analysis depicted in FIG. 4. Field emission scanning electron microscopy images acquired on FEI QUANTA 200 microscope, equipped with a tungsten filament gun, operating at WD 10.6 mm and 20 kV. A 10 μL aliquot of all three sample solution were placed on silicon wafer and fixed on copper stubs with help of carbon tape. The samples were dried at room temperature for overnight and images were recorded without gold coating.

MCF-7 cells = experiment: cells; assay type: cell-based
Experimental: as §1, §2, §3

[2] = Appearance / solubilization of aqueous test solutions; assay type: physicochemical; conditions: 100 μg/ml
Experimental: Optical properties of the present complex SL(A)+ curcumin complex were determined by UV-Vis and Photoluminescence studies analysis. Accordingly, the optical properties of SL(A), curcumin and the present sophorolipid-curcumin (SL(A)+Cur) self-assembly were compared. UV-Vis absorption spectra were recorded on Varian CARY 100 Bio UV-Vis spectrophotometer respectively, with 10 mm quartz cell at 25±0.1° C. For recording the spectra, 3 ml solutions of SL(A), Cur and SL(A)+Cur solution were prepared with having a concentration of 100 μg/ml. The solutions of this were mixed gently and subsequently the spectra were recorded.
Visible differences in the appearance of each of the test solutions were observed.

zeta potential (Zeta potential): −15.14 mV
hydrodynamic radius [1]: about 818 nm
hydrodynamic radius ([1]; listed as Curcumin): 818.6 nm
appearance of the solution [2]: turbid
Compound: COc1cc(/C=C/C(=O)CC(=O)/C=C/c2ccc(O)c(OC)c2)ccc1O [Cur, diferuloylmethane]
concentration at which cytotoxicity is exhibited (MDA-MB-231 cells): 20000 ng/mL
activity against the cancerous cell lines (MDA-MB-231 cells; MDA-MB-231): no activity
% viability (MDA-MB-231 cells; MDAMB 231, 5 μg/ml): 100%
% viability (MDA-MB-231 cells; MDAMB 231, 10 μg/ml): 100%
% viability (MDA-MB-231 cells; MDAMB 231, 20 μg/ml): 100%
% viability (MDA-MB-231 cells; MDAMB 231, 40 μg/ml): 95%
% viability (MDA-MB-231 cells; MDAMB 231, 80 μg/ml): 93%
% viability (MDA-MB-231 cells; MDAMB 231, 120 μg/ml): 91%
viability at 5 µg/mL (MCF-7 cells; Homo sapiens, MCF7): 100%
viability at 10 µg/mL (MCF-7 cells; Homo sapiens, MCF7): 100%
viability at 20 µg/mL (MCF-7 cells; Homo sapiens, MCF7): 100%
viability at 40 µg/mL (MCF-7 cells; Homo sapiens, MCF7): 95%
viability at 80 µg/mL (MCF-7 cells; Homo sapiens, MCF7): 93%
viability at 120 µg/mL (MCF-7 cells; Homo sapiens, MCF7): 91%
activity against the cancerous cell lines (MCF-7 cells; MCF-7): no activity
concentration from which anticancer activity (growth inhibition) commences (MCF-7 cells; MCF-7, FIG. 7(a), for the complex as concentration of Cur): 40 µg/mL
relative toxicity at low to moderate dose (MCF-7 cells; MCF-7, low to moderate dose range (5-20 μg/ml)): more toxic
